Experimental data published in ChEMBL document CHEMBL1909046, “DrugMatrix in vitro pharmacology data”.
pIC50, pKi: −log10 of the molar value.

Legend:
[1] = target: T1, Receptor-type tyrosine-protein phosphatase C (Homo sapiens, UniProt P08575); set-up: species or system Escherichia coli;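 note: inhibition of CD45 enzyme activity measured using DiFMUP as substrate; in other assays of this panel Not Active means under 50% inhibition at 10 µM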
T1 sequence (P08575 whole entry): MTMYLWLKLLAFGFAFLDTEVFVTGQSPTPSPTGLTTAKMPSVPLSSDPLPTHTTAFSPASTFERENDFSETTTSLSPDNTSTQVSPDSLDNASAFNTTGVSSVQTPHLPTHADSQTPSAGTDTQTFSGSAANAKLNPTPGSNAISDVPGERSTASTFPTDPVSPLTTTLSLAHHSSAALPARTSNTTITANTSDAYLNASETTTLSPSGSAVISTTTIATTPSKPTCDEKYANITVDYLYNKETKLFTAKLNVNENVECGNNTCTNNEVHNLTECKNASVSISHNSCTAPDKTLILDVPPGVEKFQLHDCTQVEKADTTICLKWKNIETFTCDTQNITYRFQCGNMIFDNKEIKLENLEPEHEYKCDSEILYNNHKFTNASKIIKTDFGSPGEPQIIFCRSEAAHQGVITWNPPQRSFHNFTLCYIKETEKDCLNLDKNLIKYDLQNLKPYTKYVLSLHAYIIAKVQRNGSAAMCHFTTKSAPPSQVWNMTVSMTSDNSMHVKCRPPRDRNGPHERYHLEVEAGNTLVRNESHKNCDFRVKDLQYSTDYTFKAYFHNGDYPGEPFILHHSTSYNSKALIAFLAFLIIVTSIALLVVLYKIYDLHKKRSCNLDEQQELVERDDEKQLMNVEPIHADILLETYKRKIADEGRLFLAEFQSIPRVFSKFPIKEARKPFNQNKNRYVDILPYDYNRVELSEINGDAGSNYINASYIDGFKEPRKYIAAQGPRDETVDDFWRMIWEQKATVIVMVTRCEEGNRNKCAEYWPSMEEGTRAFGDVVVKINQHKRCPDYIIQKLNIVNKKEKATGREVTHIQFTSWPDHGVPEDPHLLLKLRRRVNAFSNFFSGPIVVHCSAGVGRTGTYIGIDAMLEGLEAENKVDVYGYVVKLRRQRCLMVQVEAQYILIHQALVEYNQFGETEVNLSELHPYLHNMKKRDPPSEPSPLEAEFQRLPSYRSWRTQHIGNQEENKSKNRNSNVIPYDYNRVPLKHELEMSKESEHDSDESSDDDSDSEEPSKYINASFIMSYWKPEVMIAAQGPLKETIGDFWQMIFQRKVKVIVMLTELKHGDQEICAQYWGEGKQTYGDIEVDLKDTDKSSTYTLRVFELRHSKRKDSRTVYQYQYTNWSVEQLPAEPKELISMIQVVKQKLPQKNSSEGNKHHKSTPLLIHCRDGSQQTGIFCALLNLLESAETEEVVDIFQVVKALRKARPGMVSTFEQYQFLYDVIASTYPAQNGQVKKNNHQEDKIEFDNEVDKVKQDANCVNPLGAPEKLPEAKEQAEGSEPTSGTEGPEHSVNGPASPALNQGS

[2] = DRUGMATRIX: Sigma2 radioligand binding (ligand: [3H] Ifenprodil); format: cell membranes, Rattus norvegicus, Wistar, Brain, Membrane; conditions: Not Active = under 50% inhibition at 10 µM
[3] = target: Receptor tyrosine-protein kinase erbB-2 (Homo sapiens, UniProt P04626); assay: biochemical; format: cell-based, Insect cells; conditions: insect cells;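 note: inhibition of HER2 kinase enzyme activity, measured with Poly(Glu:Tyr) as the phosphorylation substrate; in other assays of this panel Not Active means under 50% inhibition at 10 µM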
Receptor tyrosine-protein kinase erbB-2, sequence (P04626 whole entry): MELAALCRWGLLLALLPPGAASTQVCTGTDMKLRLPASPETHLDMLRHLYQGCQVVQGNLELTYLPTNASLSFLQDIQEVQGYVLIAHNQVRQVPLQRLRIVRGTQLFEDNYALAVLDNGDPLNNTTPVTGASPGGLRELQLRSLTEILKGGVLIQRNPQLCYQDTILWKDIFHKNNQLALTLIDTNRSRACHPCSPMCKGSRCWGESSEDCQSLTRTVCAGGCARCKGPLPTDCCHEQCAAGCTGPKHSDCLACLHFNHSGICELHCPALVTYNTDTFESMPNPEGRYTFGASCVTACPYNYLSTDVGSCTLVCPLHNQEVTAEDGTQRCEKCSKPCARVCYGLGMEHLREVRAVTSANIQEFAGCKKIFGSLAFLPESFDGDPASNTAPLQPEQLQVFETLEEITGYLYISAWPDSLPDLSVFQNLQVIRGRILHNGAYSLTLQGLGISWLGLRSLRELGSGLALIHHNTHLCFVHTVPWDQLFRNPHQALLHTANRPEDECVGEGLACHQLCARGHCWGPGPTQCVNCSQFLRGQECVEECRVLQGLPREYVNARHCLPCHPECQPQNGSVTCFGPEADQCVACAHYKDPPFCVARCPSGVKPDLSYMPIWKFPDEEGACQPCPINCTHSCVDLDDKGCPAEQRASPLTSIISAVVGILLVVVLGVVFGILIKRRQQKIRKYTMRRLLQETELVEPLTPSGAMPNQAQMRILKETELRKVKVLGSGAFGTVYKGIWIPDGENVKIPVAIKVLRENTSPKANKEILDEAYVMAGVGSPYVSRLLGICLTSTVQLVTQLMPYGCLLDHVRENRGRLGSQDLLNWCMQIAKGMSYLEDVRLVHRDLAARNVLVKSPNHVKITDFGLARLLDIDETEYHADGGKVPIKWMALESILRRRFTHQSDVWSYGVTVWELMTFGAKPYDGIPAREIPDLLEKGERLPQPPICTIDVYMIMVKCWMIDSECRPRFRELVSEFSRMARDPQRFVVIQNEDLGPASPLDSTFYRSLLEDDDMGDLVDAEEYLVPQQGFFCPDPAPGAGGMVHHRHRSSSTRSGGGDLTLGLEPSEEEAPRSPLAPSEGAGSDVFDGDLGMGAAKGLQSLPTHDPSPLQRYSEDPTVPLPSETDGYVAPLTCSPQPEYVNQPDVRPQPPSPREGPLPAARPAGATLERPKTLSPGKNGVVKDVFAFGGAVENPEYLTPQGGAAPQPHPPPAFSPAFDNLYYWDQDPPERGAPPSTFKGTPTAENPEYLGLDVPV

[4] = target: Platelet-activating factor receptor (Homo sapiens, UniProt P25105); format: tissue-based; note: in other assays of this panel Not Active means under 50% inhibition at 10 µM
Platelet-activating factor receptor, sequence (P25105 whole entry): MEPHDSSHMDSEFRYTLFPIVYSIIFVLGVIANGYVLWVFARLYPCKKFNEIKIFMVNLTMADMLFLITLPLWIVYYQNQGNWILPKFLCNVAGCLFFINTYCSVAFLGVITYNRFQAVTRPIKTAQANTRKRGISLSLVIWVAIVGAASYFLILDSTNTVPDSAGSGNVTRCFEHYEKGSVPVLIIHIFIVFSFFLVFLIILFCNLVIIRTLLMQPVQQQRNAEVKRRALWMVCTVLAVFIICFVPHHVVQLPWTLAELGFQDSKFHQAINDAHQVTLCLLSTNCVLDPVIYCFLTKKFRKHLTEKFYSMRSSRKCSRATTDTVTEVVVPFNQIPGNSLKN

[5] = target: T2, Alpha-2A adrenergic receptor (Homo sapiens, UniProt P08913); format: cell membranes, Sf9, Membrane; conditions: for pIC50: read-out: IC50; for pKi: read-out: Ki; for IC50: sf9; for all read-outs here: in other assays of this panel Not Active means under 50% inhibition at 10 µM
T2 sequence (P08913 whole entry): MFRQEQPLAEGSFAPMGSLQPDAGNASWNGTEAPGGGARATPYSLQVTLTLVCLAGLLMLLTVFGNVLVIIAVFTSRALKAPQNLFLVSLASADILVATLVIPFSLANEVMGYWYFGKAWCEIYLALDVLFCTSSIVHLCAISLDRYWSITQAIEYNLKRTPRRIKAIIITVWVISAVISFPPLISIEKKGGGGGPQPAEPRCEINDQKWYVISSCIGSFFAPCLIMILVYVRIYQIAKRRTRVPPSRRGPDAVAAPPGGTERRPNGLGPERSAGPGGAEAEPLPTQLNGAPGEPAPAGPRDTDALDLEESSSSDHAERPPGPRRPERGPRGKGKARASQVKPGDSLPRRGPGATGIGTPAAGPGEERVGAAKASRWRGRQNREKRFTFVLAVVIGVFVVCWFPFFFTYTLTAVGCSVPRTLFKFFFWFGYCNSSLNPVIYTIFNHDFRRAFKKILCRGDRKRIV

Cytochrome P450 2E1 = Cytochrome P450 2E1 (Homo sapiens, UniProt P05181); conditions: bti-tn-5b1-4; note: in other assays of this panel Not Active means under 50% inhibition at 10 µM
Cytochrome P450 2E1, sequence (P05181 whole entry): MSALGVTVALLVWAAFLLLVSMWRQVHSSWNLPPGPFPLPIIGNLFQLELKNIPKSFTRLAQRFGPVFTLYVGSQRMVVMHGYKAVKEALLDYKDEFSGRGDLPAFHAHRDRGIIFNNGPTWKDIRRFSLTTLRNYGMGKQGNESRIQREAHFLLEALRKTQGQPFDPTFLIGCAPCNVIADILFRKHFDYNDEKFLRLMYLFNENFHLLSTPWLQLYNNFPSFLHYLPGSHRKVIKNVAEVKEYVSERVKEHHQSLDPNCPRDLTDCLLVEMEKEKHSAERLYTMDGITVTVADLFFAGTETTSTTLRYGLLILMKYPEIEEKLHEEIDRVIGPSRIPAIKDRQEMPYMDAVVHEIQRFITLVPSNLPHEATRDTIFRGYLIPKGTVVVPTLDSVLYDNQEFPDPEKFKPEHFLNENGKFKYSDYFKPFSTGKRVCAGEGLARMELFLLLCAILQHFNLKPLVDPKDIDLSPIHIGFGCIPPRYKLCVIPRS

[6] = target: Aldo-keto reductase family 1 member B1 (Rattus norvegicus, UniProt P07943); assay: biochemical; format: tissue-based, Lens of camera-type eye

SMILES | IC50 [1] | IC50 [2] | Ki [2] | IC50 [3] | IC50 [4] | pIC50 [5] | pKi [5] | IC50 (Cytochrome P450 2E1) | Ki (Cytochrome P450 2E1) | IC50 [6] | IC50 [5] | pIC50 ([2]; read-out: IC50) | pKi ([2]; read-out: Ki)
CN1CCC(=C2c3ccccc3CC(=O)c3sccc32)CC1 [KETOTIFEN] | Not Active | Not Active | Not Active | Not Active | Not Active | 5.66 | 6.09 | Not Active | Not Active | Not Active |  |  | 
C[N+](C)(C)C[C@H](O)CC(=O)[O-] [LEVOCARNITINE] | Not Active | Not Active | Not Active | Not Active | Not Active |  |  | Not Active | Not Active | Not Active | Not Active |  | 
C[C@H]1COc2c(N3CCN(C)CC3)c(F)cc3c(=O)c(C(=O)O)cn1c23.C[C@H]1COc2c(N3CCN(C)CC3)c(F)cc3c(=O)c(C(=O)O)cn1c23.O [LEVOFLOXACIN] | Not Active | Not Active | Not Active | Not Active | Not Active |  |  | Not Active | Not Active | Not Active | Not Active |  | 
CCn1cc(C(=O)O)c(=O)c2cc(F)c(N3CCNC(C)C3)c(F)c21 (stereo unspecified) [LOMEFLOXACIN] | Not Active | Not Active | Not Active | Not Active | Not Active |  |  | Not Active | Not Active | Not Active | Not Active |  | 
CN1CCCC(CN2c3ccccc3Sc3ccccc32)C1 (stereo unspecified) [MEPAZINE] | Not Active |  |  | Not Active | Not Active | 5.84 | 6.26 | Not Active | Not Active | Not Active |  | 6.20 | 6.41
Cc1cccc(C)c1NC(=O)C1CCCCN1C (stereo unspecified) [MEPIVACAINE] | Not Active | Not Active | Not Active | Not Active | Not Active |  |  | Not Active | Not Active | Not Active | Not Active |  | 
CN(C)C(=N)NC(=N)N [METFORMIN] | Not Active | Not Active | Not Active | Not Active | Not Active |  |  | Not Active | Not Active | Not Active | Not Active |  | 
CC(C)(C)NCC(O)COc1cccc2c1CC(O)C(O)C2 (stereo unspecified) [NADOLOL] | Not Active | Not Active | Not Active | Not Active | Not Active |  |  | Not Active | Not Active | Not Active | Not Active |  | 
C[C@]12CC[C@H]3[C@@H](CCC4=CC(=O)CC[C@@H]43)[C@@H]1CC[C@@H]2O [NANDROLONE] | Not Active | Not Active | Not Active | Not Active | Not Active |  |  | Not Active | Not Active | Not Active | Not Active |  | 
CN(C)C(=O)Oc1cccc([N+](C)(C)C)c1.[Br-] [NEOSTIGMINE BROMIDE] | Not Active | Not Active | Not Active | Not Active | Not Active |  |  | Not Active | Not Active | Not Active | Not Active |  | 
NC(=O)c1cccnc1 [NIACINAMIDE] | Not Active | Not Active | Not Active | Not Active | Not Active |  |  | Not Active | Not Active | Not Active | Not Active |  | 
